Columns and labels:
human MATE1 = biological target: T1, human MATE1 (Homo sapiens, UniProt Q96FL8); assay: cell-based
T1 sequence (Q96FL8 1-570): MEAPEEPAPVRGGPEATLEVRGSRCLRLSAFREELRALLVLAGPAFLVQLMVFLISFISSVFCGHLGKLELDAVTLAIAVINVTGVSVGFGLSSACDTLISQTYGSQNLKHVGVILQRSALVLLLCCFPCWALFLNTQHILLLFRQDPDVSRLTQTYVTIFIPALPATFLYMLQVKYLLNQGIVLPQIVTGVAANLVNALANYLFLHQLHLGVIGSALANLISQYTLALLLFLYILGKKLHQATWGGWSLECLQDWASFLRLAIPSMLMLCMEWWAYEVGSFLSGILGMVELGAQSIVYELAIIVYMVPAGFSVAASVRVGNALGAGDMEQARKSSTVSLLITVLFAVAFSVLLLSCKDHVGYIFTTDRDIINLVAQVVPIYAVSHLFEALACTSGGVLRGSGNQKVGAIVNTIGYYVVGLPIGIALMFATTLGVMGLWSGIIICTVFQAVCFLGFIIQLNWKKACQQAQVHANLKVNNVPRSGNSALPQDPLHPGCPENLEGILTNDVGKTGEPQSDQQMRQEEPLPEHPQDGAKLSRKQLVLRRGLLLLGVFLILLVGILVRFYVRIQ

[1] = humans; cited from earlier work
[2] = tested on: cardiomyocytes isolated from wild-type or MATE1-deficient mice; assay: Ex vivo cardiomyocyte uptake of [3H] dofetilide; format: cell-based, mouse; settings: [3H] dofetilide 2 µM; cardiomyocytes from MATE1-/- vs wild-type mice
Procedure: Briefly, hearts from wild-type and MATE1-deficient mice were quickly removed and perfused on a Langendorff’s apparatus at 37 °C. After a 5 min perfusion with Ca^2+-free tyrode solution containing (in mM): 140 NaCl, 5.4 KCl 0.5 MgCl2, 10 Hepes and 5.6 glucose; pH 7.3, the perfusate was then switched to tyrode solution containing Liberase Blendzymes (Roche, Applied Science, IN) for digestion of the connective tissue. After 20 min of digestion, cardiomyocytes were isolated from dissected and triturated hearts and stabilized in BSA containing tyrode solution.
Isolated cardiomyocytes were then plated in 12 well plates containing Ca^2+ and Mg^2+ free Hank’s balanced salt solution.

human (h) MATE1 = biological target: T2, human (h) MATE1 (Homo sapiens, UniProt Q96FL8); assay: Uptake of [14C] TEA and [14C] metformin in HEK293 cells overexpressing human MATE1 after preincubation with dofetilide; format: cell-based; settings: dofetilide 1-50 µM, preincubation 15 min; TEA 2 µM, metformin 5 µM
T2 construct: host or cells: HEK293 (Flp-In system, pcDNA5/FRT vector)
T2 sequence (Q96FL8 1-570): T1 sequence (Q96FL8 1-570)
Procedure: In brief, cells were seeded in 12- or 24-well plates in phenol red-free DMEM containing 10% FBS, and were incubated at 37 °C for 24 h. […] Uptake studies were performed with [^14C] […]
overexpressing mouse (m) OCT2, OCTN1, or MATE1. Relative uptake is expressed as percentage change compared with empty vector controls (n = 3). (B) Uptake of [14C] TEA (2 µM) and [14C] metformin (5 µM) in HEK293 cells […]
followed by the co-incubation with TEA and metformin for 15 min. Data represent the mean ± SEM and are expressed as a percentage over vector control. (C) Gene expression of MATE1 in the kidney isolated from untreated male and female wild-type mice (n = 4 per group). (D) Protein expression of MATE1 in the heart isolated from untreated wild-type (WT) and MATE1-/- mice (n=3). Immunohistochemical detection of MATE1 (bottom panels) in the wild-type mouse heart (E) and kidney (F). Tissue staining lacking the primary antibody was performed as a negative control for each tissue group (top panels). Representative images were taken at x40 magnification. (G) […]
(also on this page, place not known: hMATE1 (% Control) mOCT2mOCTN1mMA TE 1 No PrimaryMATE1 Relative Uptake in of) […]

MATE1 (SLC47A1) = biological target: T3, MATE1 (SLC47A1) (Homo sapiens, UniProt Q96FL8); assay: in vitro; settings: HEK293 cells overexpressing human MATE1
T3 sequence (Q96FL8 1-570): T1 sequence (Q96FL8 1-570)

Row | IC50 (human MATE1) | inhibition of MATE1-dependent transport of TEA and metformin (human (h) MATE1) | Km at 2 min (MATE1 (SLC47A1)) | SMILES | higher dofetilide plasma concentrations in females than males [1] | accumulation of dofetilide in cardiomyocytes [2]
1 | 320 nM | – | – | CCC(C)n1ncn(-c2ccc(N3CCN(c4ccc(OCC5COC(Cn6cncn6)(c6ccc(Cl)cc6Cl)O5)cc4)CC3)cc2)c1=O (stereo not shown) [Itraconazole, itraconazole] | – | –
2 | 170 nM | – | – | CC(=O)N1CCN(c2ccc(OCC3COC(Cn4ccnc4)(c4ccc(Cl)cc4Cl)O3)cc2)CC1 (stereo not shown) [Ketoconazole, ketoconazole] | – | –
3 | 130 nM | – | – | COc1cc2c(Nc3ccc(Br)cc3F)ncnc2cc1OCC1CCN(C)CC1 [Vandetanib, vandetanib] | – | –
4 | – | dose-dependently inhibit | 6.72 ± 1.71 µM | CN(CCOc1ccc(NS(C)(=O)=O)cc1)CCc1ccc(NS(C)(=O)=O)cc1 [dofetilide] | 14–22% | significantly increased in the absence of MATE1
